In paper PMC8861050, “Design, synthesis and evaluation of novel 2-oxoindoline-based acetohydrazides as antitumor agents” (Scientific Reports, 2022):

Assays:
[1] = system: SW620 (colon cancer); test: SRB cytotoxicity assay, SW620; type: cell-based; conditions: Homo sapiens, SW-620, 48 h incubation, mean ± SEM of 3 independent experiments
Outline: (§1)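 Cells in DMEM were seeded at 3 × 10^4 cells/mL and preincubated 24 h at 37 °C, 5% CO2. Compounds were added in medium at 1% DMSO for 48 h. Cell density was read by sulforhodamine B staining, with IC50 by probit analysis as the mean of three independent screens.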

[2] = system: PC3 (prostate cancer); test: SRB cytotoxicity assay, PC3; type: cell-based; conditions: Homo sapiens, 48 h incubation, mean ± SEM of 3 independent experiments
Outline: as §1

[3] = system: NCI-H23 (lung cancer); test: SRB cytotoxicity assay, NCI-H23; type: cell-based; conditions: Homo sapiens, 48 h incubation, mean ± SEM of 3 independent experiments
Outline: as §1

[4] = Cytotoxicity on normal mesenchymal stem cells; type: cell-based; conditions: human bone marrow-derived mesenchymal stem cells; mean ± SEM; read-out: Cytotoxicity (IC50) MSCs
[5] = system: U937 human lymphoma cells; test: Cell cycle analysis (PI, flow cytometry); type: cell-based; conditions: 24 h
Procedure: U937 human lymphoma cells (5 × 10^5/mL per well) were plated in 6-well culture plates and allowed to grow for 24 h. In our first experiment, we examined the effects of 4f, 4h, 4n, 4o, 4p, and PAC-1 on cell cycles at 50 µM. In the second experiment, we examined the dose-dependent effect of 4o at 5, 10, and 30 µM and PAC-1 at 30 µM on cell cycles. The cells were treated with compounds for 24 h, and then harvested. The harvested cells were washed twice with ice-cold PBS, fixed in 75% ice-cold ethanol, and stained with propidium iodide (PI) in the presence of RNase at room temperature for 30 min. The stained cells were analyzed for DNA content using a FACScalibur flow cytometer (BD Biosciences, San Jose, CA, USA) and the data were processed using Cell Quest Pro software (BD Biosciences).
(§2) Figure 3 Cell cycle analysis after treatment with some compounds. U937 human lymphoma cells were treated with compounds (50 µM) for 24 h. The harvested cells were stained with propidium iodide (PI) in the presence of RNase and then were analyzed for DNA content by using flow cytometry. Ten thousand cells were acquired (n = 3). UN untreated, VH vehicle (DMSO. 0.1%). Representative histograms (A) and bar graphs (B) are shown. p values were calculated using one-way ANOVA in GraphPad Software (San Diego, CA, USA). *p < 0.01 vs VH control.
as §2, with “Figure 4” for “Figure 3”, “analysis under” for “analysis after”, “with different concentrations of compound 4o.” for “with some compounds.”, “with compound 4o at 5, 10 and 30 µM or PAC-1 (30” for “with compounds (50”

[6] = system: SW620, PC-3, and NCI-H23 cell lines; test: Cytotoxicity, summary statements over three human cancer cell lines; type: cell-based; conditions: SW620, PC-3, NCI-H23
Source text: Three human cancer cell lines: colon cancer (SW620), prostate cancer (PC3), and lung cancer (NCI-H23) were used for sceening the cytotoxicity of the compounds. The cancer cells were purchased from American Type Culture Collection (Manassas, VA, USA). Other reagents/media for cell culture were obtained from GIBCO (Grand Island, New York, USA). The testing cancer cells were culture in Dulbecco’s Modified Eagle Medium until confluence. Then, they were trypsinized and suspended at the level of 3 × 10^4 cells/mL of cell culture medium. On day 0, cancer cells were seeded at a volume of 180 µL/well of 96-well plates and incubated for 24 h at 37 °C in a 5% CO2 incubator. On day 1, 20 µL of various concentrations of testing compounds were added to each well of the 96-well plates. Chemicals were dissolved in dimethyl sulfoxide (DMSO, stock) and diluted in culture medium (1% DMSO) before adding to the culture. After 48 h incubation, the sulforhodamine B assay was used for cell density determination with slight modifications[22]–[26]. The Probits were used for the calculation of IC50 values. The reported IC50 were the averages of three independent screening (SD ≤ 10%)[27].
Overally, 5-fluorinated compounds (4i–p and 5d–f) were slightly more cytotoxic than non-fluorinated ones (4a–h, 5a–c). […]

## COc1ccc(/C=N/NC(=O)CN2C(=O)Cc3cc(F)ccc32)c(O)c1 [Compound 4o, (E)-N'-(2-Hydroxy-4-methoxybenzylidene)-2-(5-fluoro-2-oxoindolin-1-yl)acetohydrazide]
[1]
  IC50: 1880 ± 20 nM
[2]
  IC50: 1830 ± 70 nM
[3]
  IC50: 1000 ± 10 nM
[4]
  IC50: 12800 ± 710 nM
[5]; 5 µM
  Effect on cell cycle, dose dependence: inhibited cell cycles
[5]; 50 µM
  Effect on cell cycle distribution: accumulated U937 cells in the S phase
[6]
  IC50 values relative to PAC-1: three- to five-fold lower
other
  melting point: 186 to 187 °C
